Reference: PMC11062899, “De novo development of small cyclic peptides that are orally bioavailable” (Nature Chemical Biology, 2023)
“And” between values parts separate entries of the source, which are not always exact repeats. Equal entries are not always repeated. Where two headings read alike, the source gives them in different places.

Legend:
[1] = Passive artificial membrane permeability (PAMPA);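 as to Permeability% Average: top well sample relative to theoretical equilibrium sample by TIC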
rat α-thrombin = biological target: T1, rat α-thrombin (Rattus norvegicus, UniProt P18292); assay: Protease inhibition, Ki for rat α-thrombin (fluorogenic substrate Z-Gly-Gly-Arg-AMC); format: biochemical; conditions: for Rat alpha thrombin inhibition, slope normalized to DMSO: replicates R1-R3
T1 construct: rat α-thrombin (Molecular Innovations) were used at final concentrations of 2 nM and 3 nM; purchased Molecular Innovations
Procedure: (§1) The inhibition constants (Ki) of cyclic peptides were calculated by measuring thrombin inhibition in the presence of different concentrations of the cyclic peptides. […] Human α-thrombin (Molecular Innovations) and rat α-thrombin (Molecular Innovations) were used at final concentrations of 2 nM and 3 nM, respectively, and fluorogenic substrate (Z-Gly-Gly-Arg-AMC, Bachem) was used at a concentration of 50 μM. Enzymatic activity was determined by measuring fluorescent gain on a Tecan Infinite M200 Pro microplate reader (excitation: 360 nm, emission: 465 nm) or a PHERAstar FSX microplate reader (excitation: 380 nm, emission: 440 nm) for 30 min at 25 °C with a fluorescent readout every 3 min. The two instruments were controlled with Tecan Infinite M200 Pro instrument software (iControl, version 1.12) and PHERAstar FSX software (version 5.70, edition 8), respectively. Protease inhibition was calculated by comparing the enzymatic activity to a control without cyclic peptide.
(§2) Half maximal inhibitory concentration (IC50) values were determined using a four-parameter logistic regression model in GraphPad Prism 9 to fit sigmoidal curves to the acquired data points according to equation (2) below.2 y=b+a−b/1+10^(logIC50−x)p where a and b represent the measured inhibition maximum and minimum, respectively; x is the logarithm of peptide concentration; y is the thrombin activity compared to a control without the cyclic peptide; and p is the Hill coefficient.
(§3) Ki values were calculated using the IC50 and the Cheng–Prusoff equation (equation (3)).3 Ki=IC50/1+S0/Km where Km is the Michaelis–Menten constant of the enzyme for the substrate used in the assay, and [S]0 is the initial substrate concentration.

human α-thrombin = human α-thrombin (Homo sapiens, UniProt P00734); assay: Protease inhibition, Ki for human α-thrombin (fluorogenic substrate Z-Gly-Gly-Arg-AMC); format: biochemical; conditions: for Human alpha thrombin inhibition, slope normalized to DMSO: replicates R1-R3
Procedure: as §1, §2, §3

[2] = peptide concentration 1.00E+02 uM
[3] = peptide concentration 1.19E-05 uM
[4] = peptide concentration 1.22E-02 uM
[5] = peptide concentration 1.25E+01 uM
[6] = peptide concentration 1.53E-03 uM
[7] = peptide concentration 1.56E+00 uM
[8] = peptide concentration 1.91E-04 uM
[9] = peptide concentration 1.95E-01 uM
[10] = peptide concentration 2.38E-05 uM
[11] = peptide concentration 2.44E-02 uM
[12] = peptide concentration 2.50E+01 uM
[13] = peptide concentration 3.05E-03 uM
[14] = peptide concentration 3.12E+00 uM
[15] = peptide concentration 3.81E-04 uM
[16] = peptide concentration 3.91E-01 uM
[17] = peptide concentration 4.77E-05 uM
[18] = peptide concentration 4.88E-02 uM
[19] = peptide concentration 5.00E+01 uM
[20] = peptide concentration 6.10E-03 uM
[21] = peptide concentration 6.25E+00 uM
[22] = peptide concentration 7.63E-04 uM
[23] = peptide concentration 7.81E-01 uM
[24] = peptide concentration 9.54E-05 uM
[25] = peptide concentration 9.77E-02 uM

PAMPA permeability: % permeability ([1]; 50 μM, 12–18 h, acceptor concentration relative to equilibrium): 70 ± 22%
Permeability% (single replicates R1–R3) ([1]; 50 μM, 13 h (Fig. 5d)): 83.98% and 44.59% and 81.97%
Permeability% Average ([1]; 50 μM, 13 h (Fig. 5d)): 70.2%
Papp at 50 μM ([1]; PAMPA, pH 7.4): 11.2 ×10⁻⁶ cm/s
Ki (rat α-thrombin; average of R1-R3, read-out: Rat alpha thrombin inhibition, Ki Average): 104 nM
Rat alpha thrombin inhibition, slope normalized to DMSO (rat α-thrombin; [2]): 11.1 and 8.8 and 6.3
Rat alpha thrombin inhibition, slope normalized to DMSO (rat α-thrombin; [3]): 97.9 and 89.1 and 104.7
Rat alpha thrombin inhibition, slope normalized to DMSO (rat α-thrombin; [4]): 95.5 and 96.6 and 90.7
Rat alpha thrombin inhibition, slope normalized to DMSO (rat α-thrombin; [5]): 7.6 and 6.9 and 7.3
Rat alpha thrombin inhibition, slope normalized to DMSO (rat α-thrombin; [6]): 101.7 and 97.0 and 102.3
Rat alpha thrombin inhibition, slope normalized to DMSO (rat α-thrombin; [7]): 15.7 and 15.6 and 13.6
Rat alpha thrombin inhibition, slope normalized to DMSO (rat α-thrombin; [8]): 90.1 and 101.9 and 101.4
Rat alpha thrombin inhibition, slope normalized to DMSO (rat α-thrombin; [9]): 54.3 and 44.0 and 44.2
Rat alpha thrombin inhibition, slope normalized to DMSO (rat α-thrombin; [10]): 98.8 and 105.1 and 93.8
Rat alpha thrombin inhibition, slope normalized to DMSO (rat α-thrombin; [11]): 96.7 and 81.8 and 91.8
Rat alpha thrombin inhibition, slope normalized to DMSO (rat α-thrombin; [12]): 6.5 and 0.4 and 5.6
Rat alpha thrombin inhibition, slope normalized to DMSO (rat α-thrombin; [13]): 104.2 and 96.1 and 93.1
Rat alpha thrombin inhibition, slope normalized to DMSO (rat α-thrombin; [14]): 7.9 and 9.5 and 5.7
Rat alpha thrombin inhibition, slope normalized to DMSO (rat α-thrombin; [15]): 106.7 and 100.9 and 91.0
Rat alpha thrombin inhibition, slope normalized to DMSO (rat α-thrombin; [16]): 38.3 and 34.0 and 35.5
Rat alpha thrombin inhibition, slope normalized to DMSO (rat α-thrombin; [17]): 98.1 and 100.4 and 100.7
Rat alpha thrombin inhibition, slope normalized to DMSO (rat α-thrombin; [18]): 84.8 and 84.4 and 72.7
Rat alpha thrombin inhibition, slope normalized to DMSO (rat α-thrombin; [19]): 0.8 and 7.3 and 2.5
Rat alpha thrombin inhibition, slope normalized to DMSO (rat α-thrombin; [20]): 104.0 and 93.5 and 94.8
Rat alpha thrombin inhibition, slope normalized to DMSO (rat α-thrombin; [21]): 7.5 and 8.8 and 7.9
Rat alpha thrombin inhibition, slope normalized to DMSO (rat α-thrombin; [22]): 97.9 and 91.4 and 101.5
Rat alpha thrombin inhibition, slope normalized to DMSO (rat α-thrombin; [23]): 26.2 and 23.7 and 23.1
Rat alpha thrombin inhibition, slope normalized to DMSO (rat α-thrombin; [24]): 96.9 and 98.1 and 96.1
Rat alpha thrombin inhibition, slope normalized to DMSO (rat α-thrombin; [25]): 69.5 and 66.8
IC50 (rat α-thrombin; single replicates R1-R3, read-out: Rat alpha thrombin inhibition, IC50): 215 nM and 179 nM and 168 nM
Ki (human α-thrombin; average of R1-R3, read-out: Human alpha thrombin inhibition, Ki Average): 321 nM
Human alpha thrombin inhibition, slope normalized to DMSO (human α-thrombin; [2]): 8.6 and 8.9 and 9.5
Human alpha thrombin inhibition, slope normalized to DMSO (human α-thrombin; [3]): 104.7 and 99.7 and 99.1
Human alpha thrombin inhibition, slope normalized to DMSO (human α-thrombin; [4]): 46.3 and 101.7 and 85.0
Human alpha thrombin inhibition, slope normalized to DMSO (human α-thrombin; [5]): 5.3 and 13.8 and 11.9
Human alpha thrombin inhibition, slope normalized to DMSO (human α-thrombin; [6]): 49.9 and 105.6 and 101.7
Human alpha thrombin inhibition, slope normalized to DMSO (human α-thrombin; [7]): 36.6 and 35.2 and 35.3
Human alpha thrombin inhibition, slope normalized to DMSO (human α-thrombin; [8]): 98.2 and 106.9 and 104.5
Human alpha thrombin inhibition, slope normalized to DMSO (human α-thrombin; [9]): 49.0 and 78.5 and 77.7
Human alpha thrombin inhibition, slope normalized to DMSO (human α-thrombin; [10]): 110.3 and 103.8 and 102.6
Human alpha thrombin inhibition, slope normalized to DMSO (human α-thrombin; [11]): 87.9 and 84.7 and 102.8
Human alpha thrombin inhibition, slope normalized to DMSO (human α-thrombin; [12]): 10.1 and 9.5 and 12.3
Human alpha thrombin inhibition, slope normalized to DMSO (human α-thrombin; [13]): 53.7 and 99.4 and 62.7
Human alpha thrombin inhibition, slope normalized to DMSO (human α-thrombin; [14]): 11.6 and 29.8 and 12.4
Human alpha thrombin inhibition, slope normalized to DMSO (human α-thrombin; [15]): 68.4 and 103.9 and 101.2
Human alpha thrombin inhibition, slope normalized to DMSO (human α-thrombin; [16]): 64.4 and 65.7 and 57.7
Human alpha thrombin inhibition, slope normalized to DMSO (human α-thrombin; [17]): 106.6 and 102.8 and 103.1
Human alpha thrombin inhibition, slope normalized to DMSO (human α-thrombin; [18]): 55.2 and 93.5 and 76.8
Human alpha thrombin inhibition, slope normalized to DMSO (human α-thrombin; [19]): 11.6 (2×) and 7.0
Human alpha thrombin inhibition, slope normalized to DMSO (human α-thrombin; [20]): 92.4 and 103.3 and 95.4
Human alpha thrombin inhibition, slope normalized to DMSO (human α-thrombin; [21]): 8.5 and 19.8 and 17.9
Human alpha thrombin inhibition, slope normalized to DMSO (human α-thrombin; [22]): 104.5 and 110.5 and 71.2
Human alpha thrombin inhibition, slope normalized to DMSO (human α-thrombin; [23]): 53.0 and 40.3 and 48.0
Human alpha thrombin inhibition, slope normalized to DMSO (human α-thrombin; [24]): 104.5 and 106.6 and 99.3
Human alpha thrombin inhibition, slope normalized to DMSO (human α-thrombin; [25]): 84.9 and 80.9 and 75.3
IC50 (human α-thrombin; single replicates R1-R3, read-out: Human alpha thrombin inhibition, IC50): 141 nM and 513 nM and 595 nM
SMILES: O=C1C[C@H]2CCCN2C(=O)[C@H](Cc2ccccc2)NC(=O)[C@@H](NC(=O)c2ccc(Cl)s2)CCCC=CCCCN1 [compound 42]
Ki (rat α-thrombin; single replicates R1-R3, read-out: Rat alpha thrombin inhibition, Ki): 119 nM (2×) and 98.9 nM (2×) and 92.9 nM (2×)
Ki (human α-thrombin; single replicates R1-R3, read-out: Human alpha thrombin inhibition, Ki): 108 nM (2×) and 396 nM (2×) and 459 nM (2×)
